Laboratory results as given in PMC5124248, “Antitumor activity of TY-011 against gastric cancer by inhibiting Aurora A, Aurora B and VEGFR2 kinases” (Journal of Experimental & Clinical Cancer Research : CR, 2016).

Legend:
AGS cells = experiment: CCK-8 cell proliferation assay, AGS; format: cell-based; conditions: Homo sapiens, CCK-8, Fig. 3
Protocol: (§1) During the logarithmic growth phase, each cell line was seeded in a 96-well tissue culture plate (Thermo Fisher Scientific, Waltham, MA, USA) at a predetermined density in complete medium, attached overnight and treated with compound for the indicated time. The medium was discarded and replaced with 10% CCK-8 (Dojindo, Kumamoto, Japan) in complete medium, then incubated the plates for another 2 h. The OD450 was measured with SpectraMax M5 (Molecular Devices, CA, USA). A background absorbance of ODblank was subtracted from all wells. The survival rate was determined with following formula: Survival rate (%) = ODcompound/ODDMSO × 100%. The IC50 values were calculated by concentration − response curve fitting using the four parameter method.

VEGFR2 = biological target: T1, VEGFR2 (Homo sapiens, UniProt P35968); experiment: HTRF KinEASE-TK kinase assay, VEGFR2; format: biochemical; conditions: mean ± SD of three independent experiments
T1 construct: purchased Carna Biosciences (Kobe, Japan)
Description: The inhibition of TY-011 on activity of Aurora A, Aurora B and VEGFR2 was characterized by HTRF® KinEASE™-STK/TK kit according to the manufacturer’s instructions (Cisbio Assays, Codolet, France). Aurora A and Aurora B were gifts from Professor Jia Li, Shanghai Institute of Materia Medica/Chinese Academy of Sciences. VEGFR2 was purchased from Carna Biosciences (Kobe, Japan).

MGC-803 cells = experiment: Annexin V/PI apoptosis analysis, MGC-803; format: cell-based, human; conditions: 48 h (7.8% control)
Protocol: Apoptosis was detected by FITC Annexin V Apoptosis Detection Kit I according to the manufacturer’s instructions (Dojindo, Kumamoto, Japan) to determine the phosphatidyl serine exposure. Apoptotic cells were quantified by a flow cytometer (Guava EasyCyte 6HT-2 L, Merck Millipore, Billerica, MA, USA) using the InCyte software. At least 10 000 cells were analyzed for each data point.

[1] = test system: CD31 (angiogenesis marker) in tumor tissues; experiment: CD31 immunohistochemistry of xenograft tumor tissues; format: in vivo, BALB/c nu/nu mice; conditions: TY-011 treated group vs control group
Description: Female BALB/c nu/nu mice (5–6 weeks, 16–18 g) were obtained from Sino-British SIPPR/BK Lab. Animal Ltd, Shanghai, China, with the certification number of 2008001638201. The animals were housed in specific pathogen-free (SPF) conditions at Key Laboratory of Brain Functional Genomics, Ministry of Education, and were acclimatized for a week prior to use. Human MGC-803 xenografts were established by subcutaneously inoculating 5 × 10^6 cells into nude mice. When the tumors reached a mean group size of 100 ~ 150 mm^3, the mice were randomized into control and treatment groups to receive treatment accordingly. TY-011 was orally administered at 3, 6 and 9 mg/kg once a day for 13 days. […] The tumor growth was recorded with the measurement of length (L) and width (W) by caliper every other day, and calculated as tumor volume (V) = L × W^2/2. Meanwhile, the body weights of mice were recorded. The tumor volume at day n was expressed as relative tumor volume (RTV) according to the following formula: RTV% = (TVn/TV0) ×100%, where TVn is the tumor volume at day n and TV0 is the tumor volume at day 0. The therapeutic effect of treatment was calculated with formula T/C (%) = mean RTV of the treated group/mean RTV of the control group × 100%. […] The tumor regression of individual mouse was defined as the tumor volume at the end was less than the tumor volume when treatment was initiated. […]

SGC-7901 cells = experiment: CCK-8 cell proliferation assay, SGC-7901; format: cell-based; conditions: Homo sapiens; SGC-7901, CCK-8, Fig. 3
Protocol: as §1

T1 sequence (P35968 790-1356 limits assumed): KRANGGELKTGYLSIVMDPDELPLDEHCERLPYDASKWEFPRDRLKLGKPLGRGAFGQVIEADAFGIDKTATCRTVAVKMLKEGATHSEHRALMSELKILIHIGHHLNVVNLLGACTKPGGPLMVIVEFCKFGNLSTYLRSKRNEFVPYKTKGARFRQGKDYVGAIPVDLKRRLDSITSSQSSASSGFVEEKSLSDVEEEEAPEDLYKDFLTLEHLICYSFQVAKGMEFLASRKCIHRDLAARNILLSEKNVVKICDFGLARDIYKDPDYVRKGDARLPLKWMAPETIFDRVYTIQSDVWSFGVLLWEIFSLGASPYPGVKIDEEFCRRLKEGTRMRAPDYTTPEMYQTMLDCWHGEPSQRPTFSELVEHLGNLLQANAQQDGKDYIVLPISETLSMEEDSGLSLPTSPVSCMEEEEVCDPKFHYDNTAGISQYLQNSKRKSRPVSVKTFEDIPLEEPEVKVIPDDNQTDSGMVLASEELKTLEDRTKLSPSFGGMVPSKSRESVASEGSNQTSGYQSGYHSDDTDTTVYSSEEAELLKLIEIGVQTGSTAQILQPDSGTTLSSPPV

SMILES: CCc1cc2c(cn1)C(c1ccccc1Cl)=Nc1c(n[nH]c1C)N2 [TY-011, 9-(2-chloro-phenyl)-6-ephyl-1-methyl-2,4-dihydro-2,3,4,7,10-pentaaza-benzo[f]azulene]
- IC50 (AGS cells): 0.96 ± 0.1 µM
- IC50 (VEGFR2): 0.103 ± 0.0062 µM
- apoptosis (MGC-803 cells; MGC-803, 0.1 μM): 39.3%
- apoptosis (MGC-803 cells; MGC-803, 0.2 μM): 78.2%
- apoptosis (MGC-803 cells; MGC-803, 0.4 μM): 86.1%
- CD31 staining in tumor tissues [1]: much less than control group
- IC50 (SGC-7901 cells): 0.57 ± 0.03 µM
